Consider nine molecules from article PMC2841647 (PLoS ONE, 2010).

Several values for one entry are separate records, joined by “and”; a condition that tells them apart may be missing. Identical values can stand only once. Like-named read-outs stand apart in the source and are kept apart here. Where a SMILES comes first, the peptide text is derived from it. Bridges are numbered along the chain shown (N, C = ends).

A word on the EC50: it is the concentration at which the effect is half-maximal. The term IC50 denotes the concentration that gives 50% inhibition.

For series [1], the target named is T1, native TrkB receptors in cortical neurons (Mus musculus, UniProt P15209).
T1 construct: cortical neurons naturally express TrkB receptors; endogenous in cells; host or cells: primary cortical neurons from E16 mouse embryos
T1 sequence (P15209 32-821): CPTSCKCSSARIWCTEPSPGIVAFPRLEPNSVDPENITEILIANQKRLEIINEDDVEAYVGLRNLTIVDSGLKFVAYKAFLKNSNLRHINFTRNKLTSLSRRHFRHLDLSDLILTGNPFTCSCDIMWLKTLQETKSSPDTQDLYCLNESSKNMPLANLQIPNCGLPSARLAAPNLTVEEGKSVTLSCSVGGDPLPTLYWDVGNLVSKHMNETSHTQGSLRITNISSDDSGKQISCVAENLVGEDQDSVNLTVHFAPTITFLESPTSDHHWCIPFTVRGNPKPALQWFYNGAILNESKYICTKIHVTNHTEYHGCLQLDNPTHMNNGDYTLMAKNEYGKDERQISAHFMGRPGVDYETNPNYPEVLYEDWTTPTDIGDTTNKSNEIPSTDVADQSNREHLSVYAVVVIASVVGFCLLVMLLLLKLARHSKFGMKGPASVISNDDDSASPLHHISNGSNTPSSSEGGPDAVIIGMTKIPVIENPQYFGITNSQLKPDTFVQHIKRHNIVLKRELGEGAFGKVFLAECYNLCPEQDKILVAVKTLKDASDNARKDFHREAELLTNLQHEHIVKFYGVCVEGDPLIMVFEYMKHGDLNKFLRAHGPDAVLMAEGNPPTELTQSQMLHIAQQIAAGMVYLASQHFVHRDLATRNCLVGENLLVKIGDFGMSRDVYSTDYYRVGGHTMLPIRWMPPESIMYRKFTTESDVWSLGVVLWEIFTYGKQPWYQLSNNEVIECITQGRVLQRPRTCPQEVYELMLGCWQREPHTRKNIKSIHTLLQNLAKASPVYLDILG
Put plainly: KIRA-ELISA (TrkB tyrosine phosphorylation) in primary cortical neurons. As to conditions: for EC50: read-out: EC50, TrkB activation. It is filed as cell-based. An excerpt: (§1) The human recombinant TrkB receptor was fluorescently tagged at its C-terminus with the Enhanced cyan fluorescent protein (rhTrkB-ECFP) by cloning the full human TrkB sequence (kindly provided by G. M. Brodeur) into the pECFP-N1 expression vector (Clontech). For inducible expression, rhTrkB-ECFP was subcloned into the tetracycline-responsive (TetOn) vector pTRE2 (Clontech). Chinese Hamster Ovary cells stably expressing rhTrkB-ECFP (TetOn-rhTrkB cells), were produced by transfection of the pTRE2-rhTrkB-ECFP plasmid into CHO-K1 TetOn cells (Clontech) followed by clone selection in 0.25 mg/ml hygromycin B (Invitrogen) and 0.1 mg/ml geneticin (G418; Invitrogen). Resistant cells were selected based on both fluorescence intensity and KIRA-ELISA profile after an overnight incubation in presence of 1000 ng/ml doxycycline (Clontech). Cortical neurons were prepared and cultured from E16 mouse embryos as described previously. The nnr5 PC12-TrkA, nnr5 PC12-TrkB and nnr5 PC12-TrkC cells (kindly provided by M. V. Chao) are NGF non-responding mutant PC12 cells stably transfected with TrkA, TrkB and TrkC cDNA, respectively.
(§2) TrkB activity was quantified using the previously described KIRA-ELISA assay with slight modifications. Cortical neurons were seeded on polyornithin-coated flat-bottom 96-well culture plates (12×10^4 cells per well) and cultured eight days at 37°C in 5% CO2. TetOn-rhTrkB cells were seeded on flat-bottom 96-well culture plates (4×10^4 cells per well) and incubated overnight with 1000 ng/ml doxycycline (Figs. S1,S2) except when indicated. Fluorescence levels in TetOn-rhTrkB cells were verified before each assay. […] Assay was stopped by removing the medium on ice and membranes were solubilized using KIRA-ELISA solubilization buffer (NaCl 150 mM, Hepes 50 mM, Triton X-100 0.5%, thimerosal 0.01%, sodium orthovanadate 2 mM, supplemented with a cocktail of protease inhibitors) for 1 h at room temperature. Solubilized membranes were transferred for 2 h at room temperature onto ELISA microtiter plate (Nunc Maxisorp) pre-coated overnight at 4°C with appropriate antibodies [polyclonal anti-GFP (1∶5000, Clontech) for TetOn-rhTrkB, polyclonal anti-TrkB (1 µg/ml, Upstate) for cultured neurons and brain slices, for phosphorylation assays; monoclonal anti-GFP (1∶3000, Chemicon) for TetOn-rhTrkB, monoclonal anti-TrkB (1∶1000, BD Biosciences) for cultured neurons and brain slices, for total TrkB quantification]. […] Absorbance was read at 450 nm after addition of 3,3′,5′,5-tetramethyl-benzidine substrate (Sigma) and acidification with 1N hydrochloric acid.
(§3) Concentration-response and competition curves were obtained using an iterative least-squares method derived from that of Parker & Waud (1971). […] Concentration-response curves and Eadie-Hofstee plots were analyzed using two-way ANOVA. Significance over time in locomotor activity studies was given using two-way ANOVA followed by Bonferroni's post-hoc test. […] One-way ANOVA followed by post-hoc Dunnett's test was used to evaluate statistical significance compare to saline group in EPM and FST procedures. n represents the number of independent experiments.

Series [2] has as its target T2, human TrkB receptor (Homo sapiens, UniProt Q16620).
T2 construct: expressed in transfected cells
The experiment in a line: KIRA-ELISA (TrkB tyrosine phosphorylation) in TetOn-rhTrkB CHO cells. It is filed as cell-based. The conditions noted are these: for ratio signal/background / EC50 / IC50: TetOn-rhTrkB cells; for EC50: read-out: EC50, TrkB activation.
Description: as §1, §2, §3
Background: In an ELISA, binding on a coated surface is turned into a signal by an enzyme label.

The test system of series [3] is mice. Put plainly: Forced swim test (FST). It is filed as in vivo, mouse. As to conditions: acute treatment, vs saline. The procedure: (§4) Mice were treated as described above before being subjected to behavioral studies. Predictive estimation for anxiolytic properties of tat-cyclotraxin-B was assessed using open field and elevated plus-maze (EPM). Antidepressant-like action of tat-cyclotraxin-B was assessed with the forced-swim test (FST). Effects of acute treatment with tat-cyclotraxin-B on spontaneous locomotion, exploration and reactivity to a novel open field was assessed in plexiglas activity chambers (Med Associates; 45×45×31 cm). Mice were placed into the center of the open field, and activity was recorded for 30 min. Testing took place under bright ambient light conditions to increase the anxiety component of the center areas of the field (defined as the central 15×15 cm portion). Mice subjected to EPM received a double 90-interval i.v. injection of tat-cyclotraxin-B or saline buffer before being placed on the platform of the EPM and assessed for 5 min (26×5×36 cm). The diazepam control group consisted of saline buffer double-treated mice that further received a 30-min i.p. injection of diazepam (1 mg/kg). Mice were assessed for number of entries and amount of time spent in open versus closed arms. The FST procedure was applied to treated mice as described by Porsolt et al. (see ref. [60]). Mice were dropped individually into glass cylinder (height, 25 cm; diameter, 10 cm) containing 10 cm water height, maintained at 23–25°C. Animals were tested for a total of 6 min. The total time of swimming, the number of climbing attempts and the time of immobility was recorded during the last 4 min of the session, after 2 min of habituation. The paroxetine control group consisted of saline buffer double-treated mice that further received a 30-min i.p. injection of paroxetine (2 mg/kg). Behaviors were recorded on videotape and scored blind.

Series [4] deals with nnr5 PC12 cells. The experiment in a line: Morphological analysis of toxicity / cell death. The format is cell-based. The conditions noted are these: 72 hours after exposure to 10 µM.
The test system of series [5] is nnr5 PC12-TrkB cells. As to conditions: 48 h.
Series [6] has as its system mice. Put plainly: Elevated plus-maze (EPM). The format is in vivo, mouse. The conditions noted are these: vs saline. The procedure:
as §4

Series [7] deals with T3, TrkB in brain slices (Mus musculus, UniProt P15209).
T3 construct: KIRA-ELISA analysis of brain TrkB receptors from mice; from tissue; host or cells: adult Swiss mouse brain, 300-µm coronal slices
T3 sequence (P15209 32-821): as above
Put plainly: KIRA-ELISA in brain slices incubated with peptide. The format is cell-based. As to conditions: peptide added to brain slices. The procedure:
TrkB activity was quantified using the previously described KIRA-ELISA assay with slight modifications. Cortical neurons were seeded on polyornithin-coated flat-bottom 96-well culture plates (12×10^4 cells per well) and cultured eight days at 37°C in 5% CO2. TetOn-rhTrkB cells were seeded on flat-bottom 96-well culture plates (4×10^4 cells per well) and incubated overnight with 1000 ng/ml doxycycline (Figs. S1,S2) except when indicated. Fluorescence levels in TetOn-rhTrkB cells were verified before each assay. […] Solubilized membranes were transferred for 2 h at room temperature onto ELISA microtiter plate (Nunc Maxisorp) pre-coated overnight at 4°C with appropriate antibodies [polyclonal anti-GFP (1∶5000, Clontech) for TetOn-rhTrkB, polyclonal anti-TrkB (1 µg/ml, Upstate) for cultured neurons and brain slices, for phosphorylation assays; monoclonal anti-GFP (1∶3000, Chemicon) for TetOn-rhTrkB, monoclonal anti-TrkB (1∶1000, BD Biosciences) for cultured neurons and brain slices, for total TrkB quantification]. […] Absorbance was read at 450 nm after addition of 3,3′,5′,5-tetramethyl-benzidine substrate (Sigma) and acidification with 1N hydrochloric acid.

Setting [8] is: TrkB + p75NTR co-expressing cortical neurons.

T2 sequence (Q16620 32-822): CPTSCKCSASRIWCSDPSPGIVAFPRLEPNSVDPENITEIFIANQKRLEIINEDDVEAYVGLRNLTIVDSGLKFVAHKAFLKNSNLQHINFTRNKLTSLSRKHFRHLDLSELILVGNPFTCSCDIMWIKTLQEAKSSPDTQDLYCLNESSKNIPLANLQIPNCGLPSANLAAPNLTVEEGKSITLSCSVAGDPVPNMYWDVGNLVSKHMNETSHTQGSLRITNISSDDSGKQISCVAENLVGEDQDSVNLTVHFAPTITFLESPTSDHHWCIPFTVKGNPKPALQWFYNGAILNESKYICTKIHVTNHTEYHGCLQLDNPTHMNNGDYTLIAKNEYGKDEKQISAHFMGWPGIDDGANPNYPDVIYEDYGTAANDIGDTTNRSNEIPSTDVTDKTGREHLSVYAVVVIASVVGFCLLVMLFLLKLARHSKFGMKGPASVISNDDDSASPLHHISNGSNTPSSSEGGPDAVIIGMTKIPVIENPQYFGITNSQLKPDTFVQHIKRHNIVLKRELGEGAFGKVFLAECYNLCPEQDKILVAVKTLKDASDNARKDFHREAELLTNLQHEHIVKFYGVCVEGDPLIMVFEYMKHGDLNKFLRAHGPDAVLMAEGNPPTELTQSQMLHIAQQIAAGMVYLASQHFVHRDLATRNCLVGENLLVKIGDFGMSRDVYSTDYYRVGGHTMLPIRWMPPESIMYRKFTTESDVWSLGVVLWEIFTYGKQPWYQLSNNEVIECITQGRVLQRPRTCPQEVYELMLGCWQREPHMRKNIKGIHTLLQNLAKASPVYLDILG

With NT-3: neurotrophin, in series [1] (setting [8]), the “agonist behaviour at TrkB” value is “partial agonist” and the ratio signal/background is reported as 1.7. Also, the EC50 in series [1] (neuronal TrkB receptors) was 0.716 ± 0.167 nM. For the same molecule, in series [2], the ratio signal/background is 3.8 and the EC50 amounted to 0.702 ± 0.134 nM.
Regarding `C[C@@H]1C[C@H]2[C@@H]3CCC4=CC(=O)C=C[C@]4(C)[C@@]3(F)[C@@H](O)C[C@]2(C)[C@@]1(O)C(=O)CO` [dexamethasone, reference compound], the “TrkB phosphorylation (indirect activation)” value in series [1] (cortical neurons, 1 µM, 2 h) is on record as “significantly triggered”.
For `COC(=O)[C@@]1(O)C[C@H]2O[C@]1(C)n1c3ccccc3c3c4c(c5c6ccccc6n2c5c31)C(=O)NC4` [K252a, reference compound], the “reversal of BDNF signal” value in series [2] (KIRA-ELISA, BDNF 4 nM, TetOn-rhTrkB cells and cortical neurons (Fig. S2)) was “fully reversed”.
On to `Fc1ccc([C@@H]2CCNC[C@H]2COc2ccc3c(c2)OCO3)cc1` [paroxetine, reference compound], for which, in series [3], the FST climbing attempts result is listed as “increased” and the “FST time of immobility” value is on record as “significant decreased”.
On to `CSCC[C@@H]1NC(=O)[C@@H]2CCCN2C(=O)[C@H](CC(N)=O)NC(=O)[C@@H](N)CSSC[C@@H](C(=O)O)NC(=O)CNC(=O)[C@H](CCC(=O)O)NC(=O)[C@H](CCCCN)NC(=O)[C@H]([C@@H](C)O)NC(=O)[C@H](Cc2ccc(O)cc2)NC(=O)CNC1=O` [cyclotraxin-B] (H-CNPMGYTKEGC-OH; disulfide 1-11; N-terminus and C-terminus assumed), for which the cell death result in series [4] is “no cell death”. The 50% inhibitory concentration (IC50) is 0.0671 ± 0.0189 nM in series [1] (cortical neurons, with BDNF, read-out: IC50, inhibition of BDNF-induced TrkB activity); 0.0657 ± 0.0217 nM in series [1] (neurons, without BDNF, read-out: IC50, BDNF-independent (basal) TrkB activity); 0.3 ± 0.07 nM in series [2] (with BDNF, read-out: IC50, inhibition of BDNF-induced TrkB activity); 0.28 ± 0.08 nM in series [2] (without BDNF, read-out: IC50, BDNF-independent (basal) TrkB activity); 0.0122 ± 0.0085 nM in series [5].
Take `CN1C(=O)CN=C(c2ccccc2)c2cc(Cl)ccc21` [diazepam, reference compound]: in series [6], the “EPM number of entries in open arms” value was “significantly increased” and the “EPM time spent in open arms” value is “significantly increased”.
For the molecule “YGRKKRRQRRR [tat-empty, reference compound]”, the “TrkB inhibition in brain slices” value in series [7] is “did not produce any effect”.
For the molecule NGF: neurotrophin, the KIRA-ELISA signal entry in series [1] (neuronal cells) and in series [2] (recombinant cells) was “did not produce any signal” in each case.

B1: BDNF: neurotrophin, cognate ligand of TrkB; mature recombinant human BDNF (Peprotech) (protein, UniProt P23560 19-247, looked up)
Neurotrophic factor BDNF …: APMKEANIRGQGGLAYPGVRTHGTLESVNGPKAGSRGLTSLADTFEHVIEELLDEDQKVRPNEENNKDADLYTSRVMLSSQVPLEPPLLFLLEEYKNYLDAANMSMRVRRHSDPARRGELSVCDSISEWVTAADKKTAVDMSGGTVTVLEKVPVSKGQLKQYFYETKCNPMGYTKEGCRGIDKRHWNSQCRTTQSYVRALTMDSKKRIGWRFIRIDTSCVCTLTIKRGR
For the molecule B1, the concentration for a half-maximal effect (EC50) in series [1] (cortical neurons, agonist alone) is 0.186 nM and 0.208 nM; in series [2] (agonist alone), 0.672 nM and 0.614 nM. Also, the ratio signal/background in series [2] was 3.94.
